# Measurements reported in patent US20230015478A1, “GLP-1 RECEPTOR AGONISTS HAVING IMPROVED PHARMACOLOGICAL AND DRUG DELIVERY PROPERTIES” (priority 2021, published 2023).
# Square brackets hold non-standard residues; d marks the D form. Peptide text beside a SMILES is read from it. Phe(2-NO2) = N[C@@H](Cc1ccccc1[N+](=O)[O-])C(=O)O; Phe(3,4,5-F3) = N[C@@H](Cc1cc(F)c(F)c(F)c1)C(=O)O; Phe(3-CF3) = N[C@@H](Cc1cccc(C(F)(F)F)c1)C(=O)O; Phe(F5) = N[C@@H](Cc1c(F)c(F)c(F)c(F)c1F)C(=O)O; Phe(2-CF3) = N[C@@H](Cc1ccccc1C(F)(F)F)C(=O)O; Phe(2,6-F2) = N[C@@H](Cc1c(F)cccc1F)C(=O)O; Bip = N[C@@H](Cc1ccc(-c2ccccc2)cc1)C(=O)O; Phe(2-CN) = N#Cc1ccccc1C[C@H](N)C(=O)O; Phe(2-F) = N[C@@H](Cc1ccccc1F)C(=O)O; Phe(2-Me) = Cc1ccccc1C[C@H](N)C(=O)O; hPhe = N[C@@H](CCc1ccccc1)C(=O)O; Aib = CC(C)(N)C(=O)O
# Biological target: T1, hGLP1 receptor (Homo sapiens, UniProt P43220)
# T1 construct: expressed in transfected cells; host or cells: HEK (human embryonic kidney) cells co-expressing hGLP1 receptor and CRE-Luciferase
# T1 sequence (P43220 24-463): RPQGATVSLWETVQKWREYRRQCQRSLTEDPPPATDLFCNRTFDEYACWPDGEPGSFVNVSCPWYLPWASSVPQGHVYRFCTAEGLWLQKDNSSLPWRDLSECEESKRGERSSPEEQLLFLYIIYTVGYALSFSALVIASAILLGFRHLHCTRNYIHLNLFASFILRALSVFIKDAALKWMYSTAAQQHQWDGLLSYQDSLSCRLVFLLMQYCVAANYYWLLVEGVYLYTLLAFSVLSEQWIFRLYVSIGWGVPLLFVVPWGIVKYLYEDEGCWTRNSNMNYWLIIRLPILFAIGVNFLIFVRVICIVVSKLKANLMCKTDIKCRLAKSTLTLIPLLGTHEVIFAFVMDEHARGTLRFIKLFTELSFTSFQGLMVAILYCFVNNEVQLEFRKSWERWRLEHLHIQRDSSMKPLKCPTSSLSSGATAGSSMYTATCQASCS
# Assay: cAMP HTRF agonist assay in HEK cells co-expressing hGLP1 receptor and CRE-Luciferase
# Assay type: cell-based
# Conditions: Table 1; cells marked (0% albumin); read-out: cAMP EC50, nM (0% albumin)
# Protocol: Human embryonic kidney cells (HEK) co-expressing the hGLP1 receptor and CRE-Luciferase construct were used to determine agonist potency in this assay. The cells were thawed briefly at 37° C., transferred to a sterile tube and re-suspended in complete media at 37° C. Cells were centrifuged at 1000 rpm for 5 minutes and cells collected; cells were re-suspended in assay buffer consisting of DPBS (GIBCO) with 500 μM of the phosphodiesterase inhibitor IBMX. […] The optimal cell density was determined to be 1000 cells/well; cells were added to wells in 384-well plates containing appropriate pre-prepared dilutions of compounds (test peptides or reference compound exendin-4), sealed and incubated with CO2 for 30 min. Test peptide solutions were diluted from 10 mM stock solutions; for most peptides an initial run was performed in duplicate from a maximal concentration of 1.0 μM, with 11 concentrations tested for each peptide using serial 1:3 dilution from this maximal concentration. […] The agonist assay was a homogeneous time-resolved fluorescence (HTRF) assay (Cisbio).
# Following incubation of the cells for 30 minutes with test or reference peptides, 5 μL of the cAMP acceptor cAMP-d2, prepared previously as a working solution from frozen stock (1:20 dilution), was added to each well of the assay plate, along with 5 μL of anti-cAMP antibody-cryptate working solution (diluted 1:20 from frozen stock). The wells were incubated for 1 hour at room temperature, and fluorescence was then read at 665 and 615 nm with an Envision reader with TRF laser. Data were saved and analyzed using Prism software (GraphPad). Concentration-response analysis was performed using 4-parameter logistic fits of the resulting data, and EC50 values obtained for each test and reference compound.
row,Structure (SMILES),EC50
1,"C[C@@H](O)[C@H](NC(=O)CNC(=O)[C@H](CCC(=O)O)NC(=O)C(C)(C)NC(=O)[C@@H](N)Cc1c[nH]cn1)C(=O)N[C@@H](Cc1c(F)cccc1F)C(=O)N[C@H](C(=O)N[C@@H](CO)C(=O)N[C@@H](CC(=O)O)C(=O)N[C@@H](Cc1ccc(-c2ccccc2)cc1)C(=O)N[C@@H](Cc1ccc(-c2ccccc2)cc1)C(N)=O)[C@@H](C)O [3-8, H2N-His-Aib-Glu-Gly-Thr-Phe(2,6F)-Thr-Ser-Asp-Bip-Bip-C(O)NH2] (H-H[Aib]EGT[Phe(2,6-F2)]TSD[Bip][Bip]-NH2)",0.16 nM
2,"C[C@H](NC(=O)[C@@H](NC(=O)CNC(=O)[C@H](CCC(=O)O)NC(=O)C(C)(C)NC(=O)[C@@H](N)Cc1c[nH]cn1)[C@@H](C)O)C(=O)N[C@H](C(=O)N[C@@H](CO)C(=O)N[C@@H](CC(=O)O)C(=O)N[C@@H](Cc1ccc(-c2ccccc2)cc1)C(=O)N[C@@H](Cc1ccc(-c2ccccc2)cc1)C(N)=O)[C@@H](C)O [3-19, H2N-His-Aib-Glu-Gly-Thr-Ala-Thr-Ser-Asp-Bip-Bip-C(O)NH2] (H-H[Aib]EGTATSD[Bip][Bip]-NH2)",2800 nM

# Same assay, conditions: cAMP EC50, nM (0.1% albumin), Table 1; 0.1% albumin
row,Structure (SMILES),EC50
1,"C[C@@H](O)[C@H](NC(=O)CNC(=O)[C@H](CCC(=O)O)NC(=O)C(C)(C)NC(=O)[C@@H](N)Cc1c[nH]cn1)C(=O)N[C@@H](Cc1ccccc1C(F)(F)F)C(=O)N[C@H](C(=O)N[C@@H](CO)C(=O)N[C@@H](CC(=O)O)C(=O)N[C@@H](Cc1ccc(-c2ccccc2)cc1)C(=O)N[C@@H](Cc1ccc(-c2ccccc2)cc1)C(N)=O)[C@@H](C)O [3-3, H2N-His-Aib-Glu-Gly-Thr-Phe(2-CF3)-Thr-Ser-Asp-Bip-Bip-C(O)NH2] (H-H[Aib]EGT[Phe(2-CF3)]TSD[Bip][Bip]-NH2)",97.1 nM
2,"Cc1ccccc1C[C@H](NC(=O)[C@@H](NC(=O)CNC(=O)[C@H](CCC(=O)O)NC(=O)C(C)(C)NC(=O)[C@@H](N)Cc1c[nH]cn1)[C@@H](C)O)C(=O)N[C@H](C(=O)N[C@@H](CO)C(=O)N[C@@H](CC(=O)O)C(=O)N[C@@H](Cc1ccc(-c2ccccc2)cc1)C(=O)N[C@@H](Cc1ccc(-c2ccccc2)cc1)C(N)=O)[C@@H](C)O [3-4, H2N-His-Aib-Glu-Gly-Thr-Phe(2-CH3)-Thr-Ser-Asp-Bip-Bip-C(O)NH2] (H-H[Aib]EGT[Phe(2-Me)]TSD[Bip][Bip]-NH2)",9.55 nM
3,"C[C@@H](O)[C@H](NC(=O)CNC(=O)[C@H](CCC(=O)O)NC(=O)C(C)(C)NC(=O)[C@@H](N)Cc1c[nH]cn1)C(=O)N[C@@H](Cc1ccccc1[N+](=O)[O-])C(=O)N[C@H](C(=O)N[C@@H](CO)C(=O)N[C@@H](CC(=O)O)C(=O)N[C@@H](Cc1ccc(-c2ccccc2)cc1)C(=O)N[C@@H](Cc1ccc(-c2ccccc2)cc1)C(N)=O)[C@@H](C)O [3-5, H2N-His-Aib-Glu-Gly-Thr-Phe(2-NO2)-Thr-Ser-Asp-Bip-Bip-C(O)NH2] (H-H[Aib]EGT[Phe(2-NO2)]TSD[Bip][Bip]-NH2)",6.67 nM
4,"C[C@@H](O)[C@H](NC(=O)CNC(=O)[C@H](CCC(=O)O)NC(=O)C(C)(C)NC(=O)[C@@H](N)Cc1c[nH]cn1)C(=O)N[C@@H](Cc1ccccc1C#N)C(=O)N[C@H](C(=O)N[C@@H](CO)C(=O)N[C@@H](CC(=O)O)C(=O)N[C@@H](Cc1ccc(-c2ccccc2)cc1)C(=O)N[C@@H](Cc1ccc(-c2ccccc2)cc1)C(N)=O)[C@@H](C)O [3-6, H2N-His-Aib-Glu-Gly-Thr-Phe(2-CN)-Thr-Ser-Asp-Bip-Bip-C(O)NH2] (H-H[Aib]EGT[Phe(2-CN)]TSD[Bip][Bip]-NH2)",33.1 nM
5,"C[C@@H](O)[C@H](NC(=O)CNC(=O)[C@H](CCC(=O)O)NC(=O)C(C)(C)NC(=O)[C@@H](N)Cc1c[nH]cn1)C(=O)N[C@@H](Cc1cccc(C(F)(F)F)c1)C(=O)N[C@H](C(=O)N[C@@H](CO)C(=O)N[C@@H](CC(=O)O)C(=O)N[C@@H](Cc1ccc(-c2ccccc2)cc1)C(=O)N[C@@H](Cc1ccc(-c2ccccc2)cc1)C(N)=O)[C@@H](C)O [3-7, H2N-His-Aib-Glu-Gly-Thr-Phe(3-CF3)-Thr-Ser-Asp-Bip-Bip-C(O)NH2] (H-H[Aib]EGT[Phe(3-CF3)]TSD[Bip][Bip]-NH2)",97.5 nM
6,"C[C@@H](O)[C@H](NC(=O)CNC(=O)[C@H](CCC(=O)O)NC(=O)C(C)(C)NC(=O)[C@@H](N)Cc1c[nH]cn1)C(=O)N[C@@H](Cc1cc(F)c(F)c(F)c1)C(=O)N[C@H](C(=O)N[C@@H](CO)C(=O)N[C@@H](CC(=O)O)C(=O)N[C@@H](Cc1ccc(-c2ccccc2)cc1)C(=O)N[C@@H](Cc1ccc(-c2ccccc2)cc1)C(N)=O)[C@@H](C)O [3-9, H2N-His-Aib-Glu-Gly-Thr-Phe(3,4,5-F)-Thr-Ser-Asp-Bip-Bip-C(O)NH2] (H-H[Aib]EGT[Phe(3,4,5-F3)]TSD[Bip][Bip]-NH2)",44.6 nM
7,"C[C@@H](O)[C@H](NC(=O)CNC(=O)[C@H](CCC(=O)O)NC(=O)C(C)(C)NC(=O)[C@@H](N)Cc1c[nH]cn1)C(=O)N[C@@H](Cc1c(F)c(F)c(F)c(F)c1F)C(=O)N[C@H](C(=O)N[C@@H](CO)C(=O)N[C@@H](CC(=O)O)C(=O)N[C@@H](Cc1ccc(-c2ccccc2)cc1)C(=O)N[C@@H](Cc1ccc(-c2ccccc2)cc1)C(N)=O)[C@@H](C)O [3-10, H2N-His-Aib-Glu-Gly-Thr-Phe(2,3,4,5,6-F)-Thr-Ser-Asp-Bip-Bip-C(O)NH2] (H-H[Aib]EGT[Phe(F5)]TSD[Bip][Bip]-NH2)",1.8 nM
8,"C[C@@H](O)[C@H](NC(=O)CNC(=O)[C@H](CCC(=O)O)NC(=O)C(C)(C)NC(=O)[C@@H](N)Cc1c[nH]cn1)C(=O)N[C@@H](CCc1ccccc1)C(=O)N[C@H](C(=O)N[C@@H](CO)C(=O)N[C@@H](CC(=O)O)C(=O)N[C@@H](Cc1ccc(-c2ccccc2)cc1)C(=O)N[C@@H](Cc1ccc(-c2ccccc2)cc1)C(N)=O)[C@@H](C)O [3-11, H2N-His-Aib-Glu-Gly-Thr-hPhe-Thr-Ser-Asp-Bip-Bip-C(O)NH2] (H-H[Aib]EGT[hPhe]TSD[Bip][Bip]-NH2)",32.6 nM
9,"C[C@@H](O)[C@H](NC(=O)CNC(=O)[C@H](CCC(=O)O)NC(=O)C(C)(C)NC(=O)[C@@H](N)Cc1c[nH]cn1)C(=O)N[C@@H](Cc1ccc(O)cc1)C(=O)N[C@H](C(=O)N[C@@H](CO)C(=O)N[C@@H](CC(=O)O)C(=O)N[C@@H](Cc1ccc(-c2ccccc2)cc1)C(=O)N[C@@H](Cc1ccc(-c2ccccc2)cc1)C(N)=O)[C@@H](C)O [3-12, H2N-His-Aib-Glu-Gly-Thr-Tyr-Thr-Ser-Asp-Bip-Bip-C(O)NH2] (H-H[Aib]EGTYTSD[Bip][Bip]-NH2)",7.3 nM
10,"C[C@@H](O)[C@H](NC(=O)CNC(=O)[C@H](CCC(=O)O)NC(=O)C(C)(C)NC(=O)[C@@H](N)Cc1c[nH]cn1)C(=O)N[C@H](Cc1ccccc1)C(=O)N[C@H](C(=O)N[C@@H](CO)C(=O)N[C@@H](CC(=O)O)C(=O)N[C@@H](Cc1ccc(-c2ccccc2)cc1)C(=O)N[C@@H](Cc1ccc(-c2ccccc2)cc1)C(N)=O)[C@@H](C)O [3-13, H2N-His-Aib-Glu-Gly-Thr-D-Phe-Thr-Ser-Asp-Bip-Bip-C(O)NH2] (H-H[Aib]EGT[dF]TSD[Bip][Bip]-NH2)",57 nM
11,"C[C@@H](O)[C@H](NC(=O)CNC(=O)[C@H](CCC(=O)O)NC(=O)C(C)(C)NC(=O)[C@@H](N)Cc1c[nH]cn1)C(=O)N[C@@H](Cc1c[nH]c2ccccc12)C(=O)N[C@H](C(=O)N[C@@H](CO)C(=O)N[C@@H](CC(=O)O)C(=O)N[C@@H](Cc1ccc(-c2ccccc2)cc1)C(=O)N[C@@H](Cc1ccc(-c2ccccc2)cc1)C(N)=O)[C@@H](C)O [3-14, H2N-His-Aib-Glu-Gly-Thr-Trp-Thr-Ser-Asp-Bip-Bip-C(O)NH2] (H-H[Aib]EGTWTSD[Bip][Bip]-NH2)",67.6 nM
12,"C[C@@H](O)[C@H](NC(=O)CNC(=O)[C@H](CCC(=O)O)NC(=O)C(C)(C)NC(=O)[C@@H](N)Cc1c[nH]cn1)C(=O)N[C@@H](Cc1ccc(-c2ccccc2)cc1)C(=O)N[C@H](C(=O)N[C@@H](CO)C(=O)N[C@@H](CC(=O)O)C(=O)N[C@@H](Cc1ccc(-c2ccccc2)cc1)C(=O)N[C@@H](Cc1ccc(-c2ccccc2)cc1)C(N)=O)[C@@H](C)O [3-15, H2N-His-Aib-Glu-Gly-Thr-Bip-Thr-Ser-Asp-Bip-Bip-C(O)NH2] (H-H[Aib]EGT[Bip]TSD[Bip][Bip]-NH2)",26.2 nM
13,"C[C@@H](O)[C@H](NC(=O)CNC(=O)[C@H](CCC(=O)O)NC(=O)C(C)(C)NC(=O)[C@@H](N)Cc1c[nH]cn1)C(=O)NC(C)(C)C(=O)N[C@H](C(=O)N[C@@H](CO)C(=O)N[C@@H](CC(=O)O)C(=O)N[C@@H](Cc1ccc(-c2ccccc2)cc1)C(=O)N[C@@H](Cc1ccc(-c2ccccc2)cc1)C(N)=O)[C@@H](C)O [3-18, H2N-His-Aib-Glu-Gly-Thr-Aib-Thr-Ser-Asp-Bip-Bip-C(O)NH2] (H-H[Aib]EGT[Aib]TSD[Bip][Bip]-NH2)",152 nM

# Same assay, conditions: cAMP EC50, nM (0.1% albumin), Table 2; 0.1% albumin
row,Structure (SMILES),EC50
1,"C[C@H](N)C(=O)NC(C)(C)C(=O)N[C@@H](CCC(=O)O)C(=O)NCC(=O)N[C@H](C(=O)N[C@@H](Cc1ccccc1F)C(=O)N[C@H](C(=O)N[C@@H](CO)C(=O)N[C@@H](CC(=O)O)C(=O)N[C@@H](Cc1ccc(-c2ccccc2)cc1)C(=O)N[C@@H](Cc1ccc(-c2ccccc2)cc1)C(N)=O)[C@@H](C)O)[C@@H](C)O [3-20, H2N-Ala-Aib-Glu-Gly-Thr-Phe(2-F)-Thr-Ser-Asp-Bip-Bip-C(O)NH2] (H-A[Aib]EGT[Phe(2-F)]TSD[Bip][Bip]-NH2)",66 nM
